From patent US12435087B2, “Modulators of DCN-1 and methods of use thereof” (Cellarity, Inc., priority 2023, dated 2025)

Assays:
[1] = target: DCN1 (DCUND1) protein PONY domain (Homo sapiens (Human), UniProt Q96GG9); experiment: Off-rate measurement of reversible covalent molecules (jump dilution TR-FRET with Cy5 probe); settings: binding mode from off-rate measurement
Description: A TR-FRET assay was performed to classify the compounds as an irreversible covalent binder, a reversible covalent binder or a reversible binder.
An assay to measure the off-rate of reversible covalent molecules was developed. A typical covalent compound is assumed to stay bound to a protein for at least the life of that protein in the cell. In reality, there is a range of how long a covalent compounds remains bound before a reverse reaction takes place. Thus, some covalent bonds can be labeled as reversible as their reverse reaction takes place in a measurable amount of time under physiological conditions. The assay capitalizes on the range of covalent binders by using a high affinity covalent binder as a probe to displace the more reversible binders in an adaptation of the jump dilution method.
In this version of the jump dilution method, the increase in covalent probe binding over time was measured through a TR-FRET reaction between the covalent probe and the biotinylated target protein.
The recombinant form of the DCN1 (DCUND1) protein PONY domain was produced using an E. coli expression system at Viva Biotech (China). The DCN1 protein was biotinylated (EZ sulfo-NHS-LC-biotin; Thermofisher) for labeling with streptavidin terbium (Tb) cryptate in the reaction. This biotinylated protein was used in two forms of the TR-FRET assay as described below.
The off-rate measurement is executed in two steps based on the jump dilution method. […] The greatest dilution allowed within the constraints of the assay was chosen. These factors allow a competitive advantage for the covalent probe to replace the test compound when that compound releases from the target protein. The actual measure is the rate of increased TR-FRET signal as the covalent probe replaces the test compound over time. […] The resulting time dependent curve of the TR-FRET signal is fit to the following equation: Y=Y0+(Plateau−Y0)*(1−exp(−K*x))
K is the rate constant (1/unit of time). The residence time is defined as the inverse of K, the rate constant. The half-life is calculated as ln(2)/K.

[2] = target: DCN2 (DCUND2) protein PONY domain (Homo sapiens (Human), UniProt Q6PH85); experiment: DCN2 TR-FRET assay, measurement of Kinact/KI; assay type: binding
Chain of DCN2 (DCUND2) protein PONY domain (Q6PH85 60-248): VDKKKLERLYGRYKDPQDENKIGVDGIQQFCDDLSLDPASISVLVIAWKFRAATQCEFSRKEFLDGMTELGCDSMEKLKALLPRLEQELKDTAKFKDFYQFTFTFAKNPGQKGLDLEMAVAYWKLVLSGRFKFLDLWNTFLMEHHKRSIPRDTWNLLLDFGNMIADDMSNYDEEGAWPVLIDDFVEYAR
Description: A TR-FRET Assay was performed to evaluate the ability of the compounds to bind DCN-2. The time resolved—Forster's resonance energy transfer (TR-FRET) assay was designed following the protocol established in (Scott et al., Nat Chem Biol. 2017 August; 13(8): 850-857). A recombinant form of the DCN2 (DCUND2) protein PONY domain was produced using an E. coli expression system at Viva Biotech China. The DCN2 protein was biotinylated (EZ sulfo-NHS-LC-biotin; Thermofisher) for labeling with 2.5 nM streptavidin terbium (Tb) cryptate in the reaction. The probe was changed to a non-covalent DCN1 inhibitor labeled with carboxyfluorescein (FAM; Zhou el al., Nat Commun. 2017; 8: 1150). Buffer conditions were modified to enhance protein stability by replacing TritonX with 0.05% Tween20 and increasing NaCl to 200 mM. […] The Kinact and KI measurements were taken to allow for continuous reads over 24 hrs. Plates were read every 5 min up to 1 hr, every 15 min up to 5 hr, and every hour up to 10 hours. Kinact and KI were calculated based on the following equations (Krippendorff B F, et al. Mechanism-based inhibition: deriving K(I) and k(inact) directly from time-dependent IC(50) values. J BiomolScreen. 2009; Mons E et al. A Comprehensive Guide for Assessing Covalent Inhibition in Enzymatic Assays Illustrated with Kinetic Simulations. […] The Kinact and KI values could be estimated from the tight curves of the IC50 values over time. [formula]

Chain of DCN1 (DCUND1) protein PONY domain (Q96GG9 60-248): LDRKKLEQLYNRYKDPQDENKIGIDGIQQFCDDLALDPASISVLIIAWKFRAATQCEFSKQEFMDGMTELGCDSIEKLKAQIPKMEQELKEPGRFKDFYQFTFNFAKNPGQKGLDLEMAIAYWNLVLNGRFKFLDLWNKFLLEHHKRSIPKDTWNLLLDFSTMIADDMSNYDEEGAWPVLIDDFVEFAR

SMILES | Category [1] | Ki [2] | kinact [2] | kinact/KI [2]
C/C=C(\CN1CCN(C2COC2)CC1)C(=O)Nc1cccc([C@@H]2c3cnn(-c4ccccc4)c3N(CC)C(=O)[C@H]2NC(=O)c2csc(C(F)(F)F)n2)c1 [Compound I-234, N-((4R,5S)-7-ethyl-4-(3-((E)-2-((4-(oxetan-3-yl)piperazin-1-yl)methyl)but-2-enamido)phenyl)-6-oxo-1-phenyl-4,5,6,7-tetrahydro-1H-pyrazolo[3,4-b]pyridin-5-yl)-2-(trifluoromethyl)thiazole-4-carboxamide] | irreversible | > 0.5 nM | 0.00167 to 0.00333 s⁻¹ | 167000 to 3.33e+06 M⁻¹ s⁻¹
C=C(CN1CCOCC1)C(=O)Nc1cccc([C@@H]2c3c(C)nn(-c4ccccc4)c3N(CC)C(=O)[C@H]2NC(=O)c2cccc(C(F)(F)F)c2)c1 [Compound I-2, N-((4R,5S)-7-ethyl-3-methyl-4-(3-(2-(morpholinomethyl)acrylamido)phenyl)-6-oxo-1-phenyl-4,5,6,7-tetrahydro-1H-pyrazolo[3,4-b]pyridin-5-yl)-3-(trifluoromethyl)benzamide] | irreversible | > 0.5 nM | 0.00333 to 0.005 s⁻¹ | 3.33e+06 to 8.33e+06 M⁻¹ s⁻¹
